Results on one molecule are retold here after patent publication US10350252B2, “Cocoa polyphenols and their use in the treatment or prevention of eosinophilic esophagitis” (NESTEC S.A., priority 2013, dated 2019).

Each structure is given as a SMILES string.

In the experiment the test system is eosinophils in the esophagus. The experiment in a line: Mouse model of eosinophilic esophagitis (epicutaneous Aspergillus fumigatus sensitization, intranasal challenge): eosinophil count in H&E stained esophagus. It is filed as in vivo, Balb/c mice. The note with it: compared to the positive control (3X ASP sensitized, 1x ASP challenged, untreated); test substance in the food; harvest on day 32. How it is done:
It is the object of the invention to provide new and alternative solutions to the problem of preventing or treating eosinophilic esophagitis. […] The evaluation of ingredients which are useful in the treatment or prevention of eosinophilic esophagitis is performed using an established mouse model for eosinophilic esophagitis (Akei et al., “Epicutaneous antigen exposure primes for experimental eosinophilic esophagitis in mice”, Gastroenterology, 2005 September; 129(3):985-94). This model uses various parameters including the number of eosinophils in the esophagus as indicators for the effect on eosinophilic esophagitis. Accordingly, is ideally suited for the testing of compounds that are candidates for the treatment or prevention of eosinophilic esophagitis. FIG. 2. Eosinophil number in the esophagus. The esophagea were harvested and tissue histology was performed. Eosinophils were identified and counted on Hematoxylin & Eosin (H&E) stained slides per high powered field (hpf). The maximal number of eosinophils found in one hpf field in the whole esophagus is shown. The maximal number of eosinophils present in the esophagal epithelium is represented. […] Esophagi were harvest and stained with hematoxylin eosin and eosinophils were counted (maximum/high power field, see FIG. 2).

For the molecule `Oc1cc(O)c2c(c1)O[C@H](c1ccc(O)c(O)c1)[C@H](O)C2` [epicatechin], the “reduction of eosinophils in the esophagus (maximum number per high power field)” value is recorded as “no effect”.
